Values after ≈ are worked out from the molar mass of the structure shown.
How the values were obtained:
[1] = tested on: Staphylococcus aureus; assay: Antibacterial activity against ciprofloxacin-resistant Staphylococcus aureus 1721 after 18 to 20 hrs by broth microdilution assay; format: functional
[2] = tested on: Staphylococcus aureus; assay: Antibacterial activity against methicillin-resistant Staphylococcus aureus 1118 after 18 to 20 hrs by broth microdilution assay; format: functional
[3] = tested on: Streptococcus pneumoniae; assay: Antibacterial activity against Streptococcus pneumoniae after 18 to 20 hrs by broth microdilution assay; format: functional
[4] = tested on: Staphylococcus aureus; assay: Antibacterial activity against methicillin-susceptible Staphylococcus aureus 42 after 18 to 20 hrs by broth microdilution assay; format: functional
[5] = tested on: Enterococcus faecium; assay: Antibacterial activity against Enterococcus faecium after 18 to 20 hrs by broth microdilution assay; format: functional
[6] = tested on: Enterococcus faecalis; assay: Antibacterial activity against Enterococcus faecalis after 18 to 20 hrs by broth microdilution assay; format: functional
[7] = biological target: DNA gyrase subunit B (Staphylococcus aureus, UniProt P0A0K8); assay: Inhibition of Staphylococcus aureus DNA GyraseB ATPase activity using linear pBR322 DNA as substrate incubated for 30 mins by fluorescence polarization analysis
Chain of DNA gyrase subunit B (P0A0K8 whole entry): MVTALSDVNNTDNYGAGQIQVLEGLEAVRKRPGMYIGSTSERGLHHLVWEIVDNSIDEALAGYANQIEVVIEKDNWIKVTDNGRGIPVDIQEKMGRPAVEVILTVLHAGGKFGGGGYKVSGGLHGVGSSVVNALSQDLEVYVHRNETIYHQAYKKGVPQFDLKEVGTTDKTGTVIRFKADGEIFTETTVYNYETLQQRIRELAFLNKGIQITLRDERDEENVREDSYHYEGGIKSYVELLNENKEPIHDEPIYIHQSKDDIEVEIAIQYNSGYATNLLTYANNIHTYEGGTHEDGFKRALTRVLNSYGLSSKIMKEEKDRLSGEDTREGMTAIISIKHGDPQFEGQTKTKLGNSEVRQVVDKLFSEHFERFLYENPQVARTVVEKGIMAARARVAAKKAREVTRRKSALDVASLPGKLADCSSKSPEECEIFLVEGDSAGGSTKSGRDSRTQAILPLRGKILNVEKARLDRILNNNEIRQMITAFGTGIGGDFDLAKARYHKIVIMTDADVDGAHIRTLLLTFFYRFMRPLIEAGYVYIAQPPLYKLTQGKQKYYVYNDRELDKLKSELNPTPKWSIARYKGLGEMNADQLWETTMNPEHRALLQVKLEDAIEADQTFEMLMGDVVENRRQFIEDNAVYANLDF

Row | SMILES | MIC [1] [µg/mL] | MIC [2] [µg/mL] | MIC [3] [µg/mL] | MIC [4] [µg/mL] | MIC [5] [µg/mL] | MIC [6] [µg/mL] | IC50 [7] [nM]
1 | CCNC(=O)Nc1cn(-c2ncccn2)c2cc(-c3cccnc3)cnc12 | 16 (≈ 44.5 µM) | 8 (≈ 22.3 µM) | 4 (≈ 11.1 µM) | 8 (≈ 22.3 µM) | 8 (≈ 22.3 µM) | 2 (≈ 5.56 µM) | < 79
2 | CCNC(=O)Nc1cn(-c2ncc(CC)cn2)c2cc(-c3cccnc3)cnc12 | 16 (≈ 41.3 µM) | 16 (≈ 41.3 µM) | 16 (≈ 41.3 µM) | 16 (≈ 41.3 µM) | 16 (≈ 41.3 µM) | 8 (≈ 20.6 µM) | 46
3 | CCNC(=O)Nc1cn(-c2ncc(Cl)cn2)c2cc(-c3cnc(C#N)nc3)cnc12 | > 32 | > 32 | > 32 | > 32 | > 32 | > 32 | 25
4 | CCNC(=O)Nc1cn(-c2ncccc2C)c2cc(-c3cccnc3)cnc12 | > 32 | > 32 | > 32 | > 32 | > 32 | > 32 | 1900
5 | CCNC(=O)Nc1cn(C(=O)c2ccccn2)c2cc(-c3cccnc3)cnc12 |  |  |  |  |  |  | 1130
6 | CCNC(=O)Nc1cn(-c2ncccn2)c2cc(-n3cnc(C(=O)NC4CC4)c3)cnc12 | 4 (≈ 9.27 µM) | 4 (≈ 9.27 µM) | 2 (≈ 4.64 µM) | 4 (≈ 9.27 µM) | 8 (≈ 18.5 µM) |  | 10
7 | CCNC(=O)Nc1cn(-c2ncc(C)c(CCCC(=O)O)n2)c2cc(-c3cccnc3)cnc12 | 8 (≈ 17.4 µM) | 8 (≈ 17.4 µM) | 0.5 (≈ 1.09 µM) | 8 (≈ 17.4 µM) | 8 (≈ 17.4 µM) |  | 15
8 | CCNC(=O)Nc1cn(-c2ncc(C)cn2)c2cc(-c3ccn(C)c(=O)c3)cnc12 | > 32 | > 32 | 4 (≈ 9.91 µM) | > 32 | > 32 | 0.5 (≈ 1.24 µM) | 13
9 | CCNC(=O)Nc1cn(-c2ncc(OC)cn2)c2cc(-c3cccnc3)cnc12 | 8 (≈ 20.5 µM) | 8 (≈ 20.5 µM) | 4 (≈ 10.3 µM) | 4 (≈ 10.3 µM) | 8 (≈ 20.5 µM) | 1 (≈ 2.57 µM) | 143
10 | CCNC(=O)Nc1cn(C2CCN(C)C2=O)c2cc(-c3cccnc3)cnc12 (configuration not stated) |  |  |  |  |  |  | 5290
11 | CCNC(=O)Nc1c[nH]c2cc(-c3cccnc3)cnc12 | > 32 | > 32 | > 32 | > 32 | > 32 | > 32 | 6500
12 | CCNC(=O)Nc1nc(CO)c(-c2ccc[nH]2)s1 |  |  | 16 (≈ 60.1 µM) | 128 (≈ 481 µM) |  |  | 2500
13 | CCNC(=O)Nc1cn(-c2nccc(CCO)n2)c2cc(-c3cccnc3)cnc12 | 32 (≈ 79.3 µM) | 32 (≈ 79.3 µM) | 8 (≈ 19.8 µM) | 32 (≈ 79.3 µM) | 16 (≈ 39.7 µM) |  | 9
14 | CCNC(=O)Nc1cn(-c2nccc(C)n2)c2cc(-c3cccnc3)cnc12 | > 32 | > 32 | 4 (≈ 10.7 µM) | > 32 | 2 (≈ 5.36 µM) | 1 (≈ 2.68 µM) | 140
15 | C=CC(=O)n1cc(NC(=O)NCC)c2ncc(-c3cccnc3)cc21 |  |  |  |  |  |  | 280
16 | CCNC(=O)Nc1cn(-c2ncc(C)cn2)c2cc(-c3cccnc3)cnc12 | 4 (≈ 10.7 µM) | 4 (≈ 10.7 µM) | 4 (≈ 10.7 µM) | 4 (≈ 10.7 µM) | 4 (≈ 10.7 µM) | 1 (≈ 2.68 µM) | 64
17 | CCNC(=O)Nc1cn(-c2ncc(Br)cn2)c2cc(-c3cccnc3)cnc12 | 2 (≈ 4.56 µM) | 2 (≈ 4.56 µM) | 1 (≈ 2.28 µM) | 1 (≈ 2.28 µM) | 2 (≈ 4.56 µM) | 0.25 (≈ 0.57 µM) | 128
18 | CCNC(=O)Nc1cn(-c2ncc(Cl)cn2)c2cc(-c3cccnc3F)cnc12 | > 32 | > 32 | > 32 | > 32 | > 32 | > 32 | 6060
19 | CCNC(=O)Nc1cn(-c2ncc(C)c(CCC(=O)O)n2)c2cc(-c3cccnc3)cnc12 | > 32 | > 32 | 1 (≈ 2.24 µM) | > 32 | > 32 |  | 48
20 | CCNC(=O)Nc1nc(/C=C/c2cccnc2)c(-c2ccc[nH]2)s1 |  |  |  |  |  |  | 5800

Row | SMILES | MIC [1] [µg/mL] | MIC [2] [µg/mL] | MIC [3] [µg/mL] | MIC [4] [µg/mL] | MIC [5] [µg/mL] | MIC [6] [µg/mL] | IC50 [7] [nM]
21 | CCNC(=O)Nc1cn(-c2ncc(C(F)(F)F)cn2)c2cc(-c3cccnc3)cnc12 | > 32 | > 32 | > 32 | > 32 | > 32 | > 32 | > 100000
22 | CCNC(=O)Nc1cn(C2CCN(C)CC2)c2cc(-c3cccnc3)cnc12 |  |  |  |  |  |  | 6420
23 | CCNC(=O)Nc1cn(-c2ncc(Cl)cn2)c2cc(-c3ccn(C)c(=O)c3)cnc12 | 2 (≈ 4.72 µM) | 1 (≈ 2.36 µM) | 1 (≈ 2.36 µM) | 1 (≈ 2.36 µM) | 2 (≈ 4.72 µM) |  | 262
24 | CCNC(=O)Nc1cn(C)c2cc(-c3cccnc3)cnc12 |  |  |  |  |  |  | 1800
25 | CCNC(=O)Nc1cn(-c2ncc(Br)cn2)c2cc(-c3ccn(C)c(=O)c3)cnc12 | 1 (≈ 2.14 µM) | 1 (≈ 2.14 µM) | 1 (≈ 2.14 µM) | 1 (≈ 2.14 µM) | 1 (≈ 2.14 µM) |  | 94
26 | CCNC(=O)Nc1cn(C2C=CCCC2)c2cc(-c3cccnc3)cnc12 (configuration not stated) |  |  |  |  |  |  | 240
27 | C=CCn1cc(NC(=O)NCC)c2ncc(-c3cccnc3)cc21 |  |  |  |  |  |  | 430
28 | CCNC(=O)Nc1cn(CC(O)CO)c2cc(-c3cccnc3)cnc12 (configuration not stated) |  |  |  |  |  |  | 1220
29 | CCNC(=O)Nc1cn(C2CCCCC2)c2cc(-c3cccnc3)cnc12 |  |  |  |  |  |  | 350
30 | CCNC(=O)Nc1cn(-c2ncccn2)c2cc(-c3ccn(C)c(=O)c3)cnc12 | 4 (≈ 10.3 µM) | 2 (≈ 5.14 µM) | 2 (≈ 5.14 µM) | 2 (≈ 5.14 µM) | 4 (≈ 10.3 µM) |  | 12
31 | CCNC(=O)Nc1cn(-c2ncc(F)cn2)c2cc(-c3cccnc3)cnc12 | > 32 | 32 (≈ 84.8 µM) | 32 (≈ 84.8 µM) | 32 (≈ 84.8 µM) | 32 (≈ 84.8 µM) | 32 (≈ 84.8 µM) | 127
32 | CCNC(=O)Nc1cn(Cc2ccccc2)c2cc(-c3cccnc3)cnc12 |  |  |  |  |  |  | 3200
33 | CCNC(=O)Nc1cn(-c2ncc(Br)cn2)c2cc(-c3ccn(CCO)c(=O)c3)cnc12 | 8 (≈ 16.1 µM) | 8 (≈ 16.1 µM) | 8 (≈ 16.1 µM) | 8 (≈ 16.1 µM) | 8 (≈ 16.1 µM) |  | 8
34 | CCNC(=O)Nc1cn(-c2ncc(C#N)cn2)c2cc(-c3cccnc3)cnc12 | > 32 | > 32 | > 32 | > 32 | > 32 | > 32 | 18
35 | CCNC(=O)Nc1cn(-c2ncc(CC)cn2)c2cc(-c3ccn(C)c(=O)c3)cnc12 | 1 (≈ 2.4 µM) | 1 (≈ 2.4 µM) | 0.25 (≈ 0.599 µM) | 1 (≈ 2.4 µM) | 0.25 (≈ 0.599 µM) |  | 71
36 | CCNC(=O)Nc1cn(CCOC)c2cc(-c3cccnc3)cnc12 |  |  |  |  |  |  | 2400
37 | CCNC(=O)Nc1cn(-c2ccccn2)c2cc(-c3cccnc3)cnc12 |  | 16 (≈ 44.6 µM) | 8 (≈ 22.3 µM) | 16 (≈ 44.6 µM) | 8 (≈ 22.3 µM) | 8 (≈ 22.3 µM) | 140
38 | CCNC(=O)Nc1cn(-c2ncc(Cl)cn2)c2cc(-c3cccnc3)cnc12 | 4 (≈ 10.2 µM) | 4 (≈ 10.2 µM) | 2 (≈ 5.08 µM) | 2 (≈ 5.08 µM) | 2 (≈ 5.08 µM) | 0.5 (≈ 1.27 µM) | 92
39 | CCNC(=O)Nc1cn(-c2nccc(CCCO)n2)c2cc(-c3cccnc3)cnc12 | 32 (≈ 76.7 µM) | 32 (≈ 76.7 µM) | 4 (≈ 9.58 µM) | 32 (≈ 76.7 µM) | 4 (≈ 9.58 µM) | 0.5 (≈ 1.2 µM) | 42

Reference: ChEMBL document CHEMBL3734679, “Discovery of Azaindole Ureas as a Novel Class of Bacterial Gyrase B Inhibitors” (J Med Chem, 2015)
